Key:
[1] = biological target: Sigma intracellular receptor 2 (Homo sapiens, UniProt Q5BJF2); experiment: GPCRScan assay: inhibition of Sigma 2; set-up: radioligand conc. used [nm] 5.0, parental cells HEKT
[2] = biological target: Cannabinoid receptor 1 (Homo sapiens) (UniProt P21554); experiment: CB1 (h) CEREP ligand profiling; settings: filed as agonist, Compound concentration 10.0 uM
[3] = biological target: Ca2+ channel (L, diltiazem site) (benzothiazepines); voltage-gated L-type calcium channel (family) (Homo sapiens, UniProt O60840+Q01668+Q13698+Q13936); experiment: Ca2+ channel (L, diltiazem site) (benzothiazepines) CEREP ligand profiling; type: protein assay; settings: compound concentration 10 uM
[4] = biological target: Vasoactive intestinal polypeptide receptor 1 (Homo sapiens) (UniProt P32241); experiment: VPAC1 (VIP1) (h) CEREP ligand profiling; settings: filed as agonist, Compound concentration 10.0 uM
[5] = test system: Tyrosine-protein kinase ABL1 (Homo sapiens), P00519 [T315I]; settings: Compound concentration 1000.0 nM
[6] = biological target: Tyrosine-protein kinase receptor UFO (Homo sapiens) (UniProt P30530); settings: Compound concentration 1000.0 nM
[7] = biological target: Cyclin-dependent kinase 19 (Homo sapiens) (UniProt Q9BWU1); settings: Compound concentration 1000.0 nM
[8] = biological target: Cyclin-dependent kinase-like 1 (Homo sapiens) (UniProt Q00532); settings: Compound concentration 1000.0 nM
[9] = biological target: Casein kinase I isoform gamma-2 (Homo sapiens) (UniProt P78368); settings: Compound concentration 1000.0 nM
[10] = biological target: Casein kinase I isoform gamma-3 (Homo sapiens) (UniProt Q9Y6M4); settings: Compound concentration 1000.0 nM
[11] = test system: Epidermal growth factor receptor (Homo sapiens), P00533 [L861Q]; settings: Compound concentration 1000.0 nM
[12] = biological target: Eukaryotic translation initiation factor 2-alpha kinase 1 (Homo sapiens) (UniProt Q9BQI3); settings: Compound concentration 1000.0 nM
[13] = biological target: Tyrosine-protein kinase Fes/Fps (Homo sapiens) (UniProt P07332); settings: Compound concentration 1000.0 nM
[14] = test system: eIF-2-alpha kinase GCN2 (Homo sapiens), Q9P2K8 [S808G]; settings: Compound concentration 1000.0 nM
[15] = biological target: Tyrosine-protein kinase HCK (Homo sapiens) (UniProt P08631); settings: Compound concentration 1000.0 nM
[16] = biological target: Homeodomain-interacting protein kinase 4 (Homo sapiens) (UniProt Q8NE63); settings: Compound concentration 1000.0 nM
[17] = test system: Mast/stem cell growth factor receptor Kit (Homo sapiens), P10721 [A829P]; settings: Compound concentration 1000.0 nM
[18] = test system: Leucine-rich repeat serine/threonine-protein kinase 2 (Homo sapiens), Q5S007 [G2019S]; settings: Compound concentration 1000.0 nM
[19] = biological target: MAP/microtubule affinity-regulating kinase 4 (Homo sapiens) (UniProt Q96L34); settings: Compound concentration 1000.0 nM
[20] = biological target: Dual specificity mitogen-activated protein kinase kinase 5 (Homo sapiens) (UniProt Q13163); settings: Compound concentration 1000.0 nM
[21] = biological target: Tyrosine-protein kinase Mer (Homo sapiens) (UniProt Q12866); settings: Compound concentration 1000.0 nM
[22] = biological target: Myosin light chain kinase 2, skeletal/cardiac muscle (Homo sapiens) (UniProt Q9H1R3); settings: Compound concentration 1000.0 nM
[23] = biological target: Serine/threonine-protein kinase Nek1 (Homo sapiens) (UniProt Q96PY6); settings: Compound concentration 1000.0 nM
[24] = biological target: Serine/threonine-protein kinase Nek2 (Homo sapiens) (UniProt P51955); settings: Compound concentration 1000.0 nM
[25] = biological target: Mitogen-activated protein kinase 12 (Homo sapiens) (UniProt P53778); settings: Compound concentration 1000.0 nM
[26] = biological target: Cyclin-dependent kinase 14 (Homo sapiens) (UniProt O94921); settings: Compound concentration 1000.0 nM
[27] = biological target: Phosphatidylinositol 4,5-bisphosphate 3-kinase catalytic subunit alpha isoform (Homo sapiens) (UniProt P42336); settings: Compound concentration 1000.0 nM
[28] = biological target: Membrane-associated tyrosine- and threonine-specific cdc2-inhibitory kinase (Homo sapiens) (UniProt Q99640); settings: Compound concentration 1000.0 nM
[29] = biological target: Protein kinase C eta type (Homo sapiens) (UniProt P24723); settings: Compound concentration 1000.0 nM
[30] = biological target: RAF proto-oncogene serine/threonine-protein kinase (Homo sapiens) (UniProt P04049); settings: Compound concentration 1000.0 nM
[31] = biological target: Rho-associated protein kinase 2 (Homo sapiens) (UniProt O75116); settings: Compound concentration 1000.0 nM
[32] = biological target: Ribosomal protein S6 kinase alpha-5 (Homo sapiens) (UniProt O75582); settings: Compound concentration 1000.0 nM
[33] = biological target: SNF-related serine/threonine-protein kinase (Homo sapiens) (UniProt Q9NRH2); settings: Compound concentration 1000.0 nM
[34] = biological target: TGF-beta receptor type-1 (Homo sapiens) (UniProt P36897); settings: Compound concentration 1000.0 nM
[35] = biological target: 5-hydroxytryptamine receptor 5A (Homo sapiens) (UniProt P47898); settings: Compound concentration 10.0 uM
[36] = biological target: T1, Muscarinic acetylcholine receptor M1 (Homo sapiens) (UniProt P11229); settings: Compound concentration 10.0 uM
T1 sequence (whole entry): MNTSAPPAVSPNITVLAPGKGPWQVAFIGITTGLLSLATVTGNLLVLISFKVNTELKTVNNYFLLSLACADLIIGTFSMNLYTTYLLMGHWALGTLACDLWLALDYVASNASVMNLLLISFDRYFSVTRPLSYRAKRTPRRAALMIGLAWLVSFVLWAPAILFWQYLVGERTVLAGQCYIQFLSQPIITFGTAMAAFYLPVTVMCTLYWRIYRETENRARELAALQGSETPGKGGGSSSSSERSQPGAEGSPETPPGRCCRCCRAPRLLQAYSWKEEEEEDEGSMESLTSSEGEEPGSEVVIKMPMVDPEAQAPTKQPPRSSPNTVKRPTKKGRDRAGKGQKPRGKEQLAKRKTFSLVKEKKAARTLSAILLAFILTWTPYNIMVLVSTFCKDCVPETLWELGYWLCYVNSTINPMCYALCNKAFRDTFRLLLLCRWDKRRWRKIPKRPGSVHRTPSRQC

[37] = biological target: Muscarinic acetylcholine receptor M3 (Homo sapiens) (UniProt P20309); settings: Compound concentration 10.0 uM
[38] = biological target: Alpha-1D adrenergic receptor (Homo sapiens) (UniProt P25100); settings: Compound concentration 10.0 uM

Sequence of Sigma intracellular receptor 2 (Q5BJF2 whole entry): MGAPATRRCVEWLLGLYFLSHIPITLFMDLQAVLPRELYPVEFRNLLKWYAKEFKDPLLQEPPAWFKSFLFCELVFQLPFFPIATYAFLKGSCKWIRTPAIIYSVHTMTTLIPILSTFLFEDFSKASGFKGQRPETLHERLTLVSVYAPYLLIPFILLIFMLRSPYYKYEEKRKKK
Sequence of SNF-related serine/threonine-protein kinase (Homo sapiens) (Q9NRH2 whole entry): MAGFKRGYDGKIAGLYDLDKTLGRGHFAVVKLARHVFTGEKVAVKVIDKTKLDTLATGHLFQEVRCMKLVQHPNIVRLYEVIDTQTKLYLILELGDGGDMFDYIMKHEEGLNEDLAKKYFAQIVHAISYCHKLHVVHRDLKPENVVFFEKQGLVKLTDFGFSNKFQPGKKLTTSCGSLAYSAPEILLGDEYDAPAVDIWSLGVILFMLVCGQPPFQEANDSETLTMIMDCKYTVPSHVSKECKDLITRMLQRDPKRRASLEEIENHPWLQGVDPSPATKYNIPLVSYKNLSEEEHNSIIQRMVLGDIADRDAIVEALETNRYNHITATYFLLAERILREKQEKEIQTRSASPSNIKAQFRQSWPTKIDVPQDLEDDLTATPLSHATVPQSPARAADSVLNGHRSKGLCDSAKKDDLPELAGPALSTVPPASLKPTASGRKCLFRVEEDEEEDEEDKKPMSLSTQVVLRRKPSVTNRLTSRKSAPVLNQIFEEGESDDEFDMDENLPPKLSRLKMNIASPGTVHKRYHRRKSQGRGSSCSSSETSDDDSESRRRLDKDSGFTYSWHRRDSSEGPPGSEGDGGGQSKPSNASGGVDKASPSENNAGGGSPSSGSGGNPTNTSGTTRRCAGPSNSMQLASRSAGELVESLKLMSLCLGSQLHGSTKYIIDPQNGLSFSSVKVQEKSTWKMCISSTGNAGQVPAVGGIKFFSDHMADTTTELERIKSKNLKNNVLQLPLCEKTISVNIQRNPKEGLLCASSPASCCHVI
Sequence of Membrane-associated tyrosine- and threonine-specific cdc2-inhibitory kinase (Homo sapiens) (Q99640 whole entry): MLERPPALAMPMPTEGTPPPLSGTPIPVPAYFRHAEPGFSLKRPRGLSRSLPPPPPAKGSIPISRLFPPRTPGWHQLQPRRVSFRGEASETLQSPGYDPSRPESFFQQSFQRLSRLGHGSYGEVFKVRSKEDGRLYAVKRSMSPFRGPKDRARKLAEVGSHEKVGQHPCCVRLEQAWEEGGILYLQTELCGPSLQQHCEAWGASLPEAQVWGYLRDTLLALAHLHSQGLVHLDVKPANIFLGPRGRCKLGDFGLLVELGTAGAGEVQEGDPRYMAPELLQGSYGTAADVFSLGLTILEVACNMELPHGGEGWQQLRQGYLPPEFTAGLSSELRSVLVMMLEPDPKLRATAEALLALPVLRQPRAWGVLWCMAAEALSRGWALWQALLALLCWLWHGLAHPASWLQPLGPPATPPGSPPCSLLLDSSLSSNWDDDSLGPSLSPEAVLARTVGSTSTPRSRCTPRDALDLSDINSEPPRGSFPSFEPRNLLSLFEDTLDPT
Sequence of Rho-associated protein kinase 2 (Homo sapiens) (O75116 whole entry, looked up): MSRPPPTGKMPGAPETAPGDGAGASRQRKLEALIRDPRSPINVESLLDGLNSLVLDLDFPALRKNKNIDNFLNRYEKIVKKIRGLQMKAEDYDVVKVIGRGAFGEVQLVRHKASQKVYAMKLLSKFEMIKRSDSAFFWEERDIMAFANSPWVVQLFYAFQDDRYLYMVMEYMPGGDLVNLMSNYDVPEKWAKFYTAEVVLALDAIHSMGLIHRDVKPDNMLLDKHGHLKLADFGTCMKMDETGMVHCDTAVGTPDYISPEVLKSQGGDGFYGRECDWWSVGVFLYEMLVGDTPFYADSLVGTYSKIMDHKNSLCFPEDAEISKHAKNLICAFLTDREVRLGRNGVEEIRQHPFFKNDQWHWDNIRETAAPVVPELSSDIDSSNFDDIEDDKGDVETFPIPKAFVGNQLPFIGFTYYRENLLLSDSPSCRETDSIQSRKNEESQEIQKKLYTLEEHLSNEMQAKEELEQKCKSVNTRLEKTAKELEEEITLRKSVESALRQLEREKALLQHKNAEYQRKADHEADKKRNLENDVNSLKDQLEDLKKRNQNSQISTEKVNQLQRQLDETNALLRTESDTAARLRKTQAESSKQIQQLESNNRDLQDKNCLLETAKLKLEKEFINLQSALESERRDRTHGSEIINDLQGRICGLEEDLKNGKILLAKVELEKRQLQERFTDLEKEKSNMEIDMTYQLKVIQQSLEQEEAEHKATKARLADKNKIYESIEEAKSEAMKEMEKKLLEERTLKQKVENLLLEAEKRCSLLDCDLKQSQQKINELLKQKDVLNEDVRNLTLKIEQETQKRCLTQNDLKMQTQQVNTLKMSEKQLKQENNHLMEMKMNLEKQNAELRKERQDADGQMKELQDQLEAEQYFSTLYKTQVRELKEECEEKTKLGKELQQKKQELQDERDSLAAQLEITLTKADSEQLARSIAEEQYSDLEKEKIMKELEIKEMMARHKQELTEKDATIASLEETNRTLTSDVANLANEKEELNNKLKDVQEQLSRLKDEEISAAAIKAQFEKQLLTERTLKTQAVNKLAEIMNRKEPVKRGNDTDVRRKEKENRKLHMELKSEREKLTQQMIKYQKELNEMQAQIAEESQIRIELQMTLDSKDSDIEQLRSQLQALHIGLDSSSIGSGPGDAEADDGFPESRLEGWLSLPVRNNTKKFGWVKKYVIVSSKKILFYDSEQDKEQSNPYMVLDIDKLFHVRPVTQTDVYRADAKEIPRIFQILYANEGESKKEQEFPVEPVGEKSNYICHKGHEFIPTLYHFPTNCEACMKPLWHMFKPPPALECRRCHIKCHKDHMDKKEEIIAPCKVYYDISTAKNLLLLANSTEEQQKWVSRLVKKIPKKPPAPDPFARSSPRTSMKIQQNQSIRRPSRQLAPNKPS
Sequence of Mast/stem cell growth factor receptor Kit (Homo sapiens), P10721 [A829P] (P10721 whole entry A829P): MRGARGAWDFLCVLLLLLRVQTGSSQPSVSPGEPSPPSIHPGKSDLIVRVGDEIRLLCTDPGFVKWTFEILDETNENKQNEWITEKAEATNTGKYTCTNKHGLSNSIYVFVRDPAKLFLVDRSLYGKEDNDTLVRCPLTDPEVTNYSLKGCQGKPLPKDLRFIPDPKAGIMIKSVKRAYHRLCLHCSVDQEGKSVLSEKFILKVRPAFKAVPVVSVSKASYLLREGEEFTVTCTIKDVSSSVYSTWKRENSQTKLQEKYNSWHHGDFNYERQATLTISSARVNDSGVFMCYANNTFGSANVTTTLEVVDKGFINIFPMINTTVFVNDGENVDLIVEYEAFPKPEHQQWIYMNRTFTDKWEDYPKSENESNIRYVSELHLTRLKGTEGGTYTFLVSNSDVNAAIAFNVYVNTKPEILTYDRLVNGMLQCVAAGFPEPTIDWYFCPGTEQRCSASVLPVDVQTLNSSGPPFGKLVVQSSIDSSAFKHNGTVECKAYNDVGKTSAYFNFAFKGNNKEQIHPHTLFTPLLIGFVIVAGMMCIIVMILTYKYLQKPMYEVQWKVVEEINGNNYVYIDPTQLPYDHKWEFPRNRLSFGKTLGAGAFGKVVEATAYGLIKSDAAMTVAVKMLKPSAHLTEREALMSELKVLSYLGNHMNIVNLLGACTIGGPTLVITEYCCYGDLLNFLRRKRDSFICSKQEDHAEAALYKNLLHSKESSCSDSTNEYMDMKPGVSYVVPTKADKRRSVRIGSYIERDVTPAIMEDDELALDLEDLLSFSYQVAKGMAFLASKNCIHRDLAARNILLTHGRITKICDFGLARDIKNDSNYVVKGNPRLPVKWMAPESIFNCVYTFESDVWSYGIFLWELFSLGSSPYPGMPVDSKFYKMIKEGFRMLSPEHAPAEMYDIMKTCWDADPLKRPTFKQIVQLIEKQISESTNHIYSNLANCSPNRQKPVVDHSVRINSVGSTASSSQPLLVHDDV
Sequence of Cyclin-dependent kinase 19 (Homo sapiens) (Q9BWU1 whole entry): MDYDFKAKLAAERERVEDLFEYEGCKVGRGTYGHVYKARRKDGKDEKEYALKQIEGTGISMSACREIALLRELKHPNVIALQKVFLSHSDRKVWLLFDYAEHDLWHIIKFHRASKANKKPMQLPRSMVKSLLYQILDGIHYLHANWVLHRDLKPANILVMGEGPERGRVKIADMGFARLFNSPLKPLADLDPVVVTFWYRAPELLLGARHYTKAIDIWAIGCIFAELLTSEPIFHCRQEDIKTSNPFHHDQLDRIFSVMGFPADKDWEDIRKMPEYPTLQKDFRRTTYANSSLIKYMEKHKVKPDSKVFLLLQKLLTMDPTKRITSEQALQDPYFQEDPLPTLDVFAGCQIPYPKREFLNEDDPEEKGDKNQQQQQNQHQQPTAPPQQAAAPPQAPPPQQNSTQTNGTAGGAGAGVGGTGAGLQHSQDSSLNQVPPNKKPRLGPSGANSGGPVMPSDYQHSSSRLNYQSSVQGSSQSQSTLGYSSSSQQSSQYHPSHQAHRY
Sequence of RAF proto-oncogene serine/threonine-protein kinase (Homo sapiens) (P04049 whole entry): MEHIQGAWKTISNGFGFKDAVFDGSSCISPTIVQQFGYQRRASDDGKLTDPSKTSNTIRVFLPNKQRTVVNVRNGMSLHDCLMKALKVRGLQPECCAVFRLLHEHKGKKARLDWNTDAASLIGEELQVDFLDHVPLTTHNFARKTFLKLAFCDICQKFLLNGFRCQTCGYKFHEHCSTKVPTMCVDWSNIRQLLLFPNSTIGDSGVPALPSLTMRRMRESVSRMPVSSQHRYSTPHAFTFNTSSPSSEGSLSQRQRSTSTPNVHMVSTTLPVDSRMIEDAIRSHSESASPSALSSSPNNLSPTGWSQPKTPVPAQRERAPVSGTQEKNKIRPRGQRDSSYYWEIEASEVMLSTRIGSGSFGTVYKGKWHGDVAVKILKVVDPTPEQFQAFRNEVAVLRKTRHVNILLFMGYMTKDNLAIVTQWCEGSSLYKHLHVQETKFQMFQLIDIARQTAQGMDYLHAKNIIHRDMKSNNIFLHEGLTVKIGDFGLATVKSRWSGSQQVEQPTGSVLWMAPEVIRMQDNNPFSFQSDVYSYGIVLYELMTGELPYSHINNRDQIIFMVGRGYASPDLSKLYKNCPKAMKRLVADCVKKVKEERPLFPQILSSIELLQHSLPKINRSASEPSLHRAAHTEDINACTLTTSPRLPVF

CNC(=O)Nc1ccc2c(c1)CC[C@@]21OC(=O)N(CC(=O)N(Cc2ccc(F)cc2)[C@@H](C)C(F)(F)F)C1=O [A-485]
Ki ([1]; read-out: Ki): 5.53 µM
Ki ([1]; read-out: pKi (converted)): 5.13 µM
inhibition [2]: 25%
inhibition at 10 µM [3]: 2% (not active)
inhibition [4]: -5%
residual activity [5]: 100%
residual activity [6]: 90%
residual activity [7]: 96%
residual activity [8]: 86%
residual activity [9]: 87%
residual activity [10]: 84%
residual activity [11]: 94%
residual activity [12]: 80%
residual activity [13]: 94%
residual activity [14]: 92%
residual activity [15]: 99%
residual activity [16]: 97%
residual activity [17]: 79%
residual activity [18]: 100%
residual activity [19]: 84%
residual activity [20]: 83%
residual activity [21]: 82%
residual activity [22]: 84%
residual activity [23]: 100%
residual activity [24]: 100%
residual activity [25]: 63%
residual activity [26]: 79%
residual activity [27]: 83%
residual activity [28]: 74%
residual activity [29]: 93%
residual activity [30]: 100%
residual activity [31]: 96%
residual activity [32]: 97%
residual activity [33]: 96%
residual activity [34]: 98%
inhibition [35]: 5.99%
inhibition [36]: 2.64%
inhibition [37]: 9.06%
inhibition [38]: -1.58%

CNC(=O)Nc1ccc2c(c1)[C@@]1(CC2)OC(=O)N(CC(=O)N(Cc2ccc(F)cc2)[C@@H](C)C(F)(F)F)C1=O [A-486]
Ki ([1]; read-out: Ki): 3.27 µM
inhibition [2]: 22%
inhibition at 10 µM [3]: -5% (not active)
inhibition [4]: -8%
residual activity [5]: 87%
residual activity [6]: 67%
residual activity [7]: 100%
residual activity [8]: 91%
residual activity [9]: 100%
residual activity [10]: 89%
residual activity [11]: 100%
residual activity [12]: 96%
residual activity [13]: 85%
residual activity [14]: 100%
residual activity [15]: 100%
residual activity [16]: 100%
residual activity [17]: 100%
residual activity [18]: 100%
residual activity [19]: 92%
residual activity [20]: 89%
residual activity [21]: 100%
residual activity [22]: 77%
residual activity [23]: 100%
residual activity [24]: 100%
residual activity [25]: 96%
residual activity [26]: 100%
residual activity [27]: 28%
residual activity [28]: 92%
residual activity [29]: 87%
residual activity [30]: 100%
residual activity [31]: 95%
residual activity [32]: 74%
residual activity [33]: 100%
residual activity [34]: 89%
inhibition [35]: 2.78%
inhibition [36]: 5.42%
inhibition [37]: 8.23%
inhibition [38]: 9.73%
